Results reported in patent publication US5089623A, “Certain imidate insecticides” (Imperial Chemical Industries Plc, priority 1990, dated 1992).

What was measured:
Assay type in all cases: in vivo
[1] = test system: Maize weevil [Sitophilus Zeamais (Motschulsky)]; assay: Maize weevil test (MW); conditions: adult weevils, treated corn seeds, 48 hours, percent in solution
Summary of the method: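 Adult weevils (10) were placed with four corn seeds that had been dipped 2-3 s in compound dissolved in 50:50 acetone:water, then dried, and held at about 25° C. Mortality was scored at 48 h. LC50 was taken from dosage-mortality curves and expressed as percent compound in solution, from a 0.01% top concentration.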

[2] = test system: Aster Leafhopper [Macrosteles fascifrens (Stal)]; assay: Aster leafhopper test (LH); conditions: adults/nymphs, 48 hours, percent in solution
[3] = test system: Tobacco Budworm [Heliothis virescens (Fabricius)] eggs; assay: Tobacco budworm egg test (TBW-E); conditions: percent in solution
[4] = test system: Tobacco Budworm [Heliothis virescens (Fabricius)]; assay: Tobacco budworm contact test (TBW-C); conditions: second-instar larvae, 5 days, percent in solution
Description: The compounds in Tables 1 and 2 above were tested for insecticidal activity using the following testing procedures. LC50 values, based on the results of these tests and calculated according to dosage-mortality curves, are expressed in Table 3.
Tobacco Budworm [Heliothis virescens (Fabricius)]
(a) Contact: Test compounds were diluted in a 50-50 acetonewater solution. Cotton (Gossypium sp.) cotyledons were immersed in the test solutions for 2-3 seconds and placed on a wire screen to dry. The dried leaves were placed in petri dishes containing a moistened piece of filter paper and infested with 5 second-instar tobacco budworm larvae. The dishes were placed in a high humidity chamber for 5 days, and percent mortality of the larvae recorded. Test concentrations ranged from 0.1% downward. The LC-50 values are expressed below in Table 3 under the heading "TBW-C" in terms of percent of the test compound in the solution.

[5] = test system: Cabbage Looper [Trichoplusia ni (Hubner)]; assay: Cabbage looper test (CL); conditions: second-instar larvae, 3-5 days, percent in solution
[6] = test system: Housefly [Musca domestica]; assay: Housefly insecticidal test (HF); conditions: per 25 female houseflies, 48 hours

| SMILES | LC50 MW [1] [%] | LC50 LH [2] [%] | LC50 TBW E [3] [%] | LC50 TBW C [4] [%] | LC50 CL [5] [%] | LC50 HF [6] [µg] |
| --- | --- | --- | --- | --- | --- | --- |
| CC(C)(C)C(=Nc1ccc(Cl)cc1)OCc1cccc(Oc2ccccc2)c1 [Compound 30] | > 0.01 | > 0.05 | > 0.1 | 0.01 | 0.003 | > 100 |
| CC(C)C(=Nc1ccc(Cl)c(Cl)c1)OCc1cccc(Oc2ccc(F)cc2)c1 [Compound 37] | 0.009 | 0.002 | 0.014 | 0.0005 | 0.0004 | 21 |
| ClC(Cl)C(=Nc1ccccc1)OCc1cccc(Oc2ccccc2)c1 [Compound 41] |  |  | 0.04 | 0.0035 | 0.015 | 4.5 |
| Fc1ccc(N=C(OCc2cccc(Oc3ccccc3)c2)C(Cl)Cl)cc1 [Compound 44] |  |  | 0.06 | < 0.1 |  | 3 |
| CC(C)C(=Nc1c(F)c(F)c(F)c(F)c1F)OCc1cccc(Oc2ccccc2)c1 [Compound 51] |  | 0.001 | 0.067 | 0.0025 | 0.001 | 25 |
| CC(C)C(=Nc1ccc(F)c(F)c1)OCc1cccc(Oc2ccc(F)cc2)c1 [Compound 60] | 0.0075 | 0.002 | 0.017 | 0.0009 | 0.001 | 8 |
| Cc1c(F)cccc1N=C(OCc1cccc(Oc2ccccc2)c1)C(C)C [Compound 73] |  |  | 0.025 | 0.005 | 0.004 | 25 |
| Cc1ccc(F)cc1N=C(OCc1cccc(Oc2ccccc2)c1)C(C)C [Compound 74] |  |  | 0.025 | 0.0025 | 0.005 | 25 |
| Cc1ccc(N=C(OCc2cccc(Oc3ccccc3)c2)C(C)C)cc1F [Compound 75] |  | 0.0008 | 0.01 | 0.0075 | 0.0025 | 5 |
| COc1ccc(N=C(OCc2cccc(Oc3ccccc3)c2)C(C)C)cc1Cl [Compound 95] |  |  | 0.025 | 0.004 | 0.0025 | 10 |
| Cc1cc(Cl)ccc1N=C(OCc1cccc(Oc2ccccc2)c1)C(C)C [Compound 96] |  |  | 0.025 | 0.0025 | 0.003 | 35 |
| CC(C)C(=Nc1ccc(F)c(C(F)(F)F)c1)OCc1cccc(Oc2ccc(F)cc2)c1 [Compound 120] | > 0.01 | 0.0003 | 0.04 | 0.0025 | 0.00015 | 14 |
| CCOc1ccc(N=C(OCc2cccc(Oc3ccccc3)c2)C(Cl)Cl)cc1 [Compound 138] | > 0.01 | > 0.05 | 0.08 | 0.015 | 0.005 | 19 |
| CC(C)(C)c1ccc(N=C(OCc2cccc(Oc3ccccc3)c2)C(Cl)Cl)cc1 [Compound 140] |  |  | > 0.1 | > 0.1 | < 0.1 | > 100 |
| COc1ccccc1N=C(OCc1cccc(Oc2ccccc2)c1)C(C)C [Compound 145] |  | > 0.05 | > 0.1 | 0.05 | 0.05 | > 100 |
| COc1ccc(N=C(OCc2cccc(Oc3ccccc3)c2)C(C)C)c(OC)c1 [Compound 146] |  |  | > 0.1 | 0.025 | 0.017 | 40 |
| CC(=O)c1ccc(N=C(OCc2cccc(Oc3ccccc3)c2)C(C)C)cc1 [Compound 147] |  |  | > 0.1 | 0.0075 | 0.01 | 10 |
| CC(C)C(=Nc1cccc(Cl)c1)OCc1cccc(Oc2ccc(F)cc2)c1 [Compound 194] | > 0.01 | 0.0005 | 0.04 | 0.0017 | 0.0005 | 10 |

| SMILES | LC50 MW [1] [%] | LC50 LH [2] [%] | LC50 TBW E [3] [%] | LC50 TBW C [4] [%] | LC50 CL [5] [%] | LC50 HF [6] [µg] |
| --- | --- | --- | --- | --- | --- | --- |
| CC(C)C(=Nc1ccc(F)c(Cl)c1)OCc1cccc(Oc2ccc(C#N)cc2)c1 [Compound 196] | > 0.01 | > 0.05 | > 0.1 | 0.001 | 0.0006 | 17 |
| CC(C)C(=Nc1cc(F)cc(F)c1)OCc1cccc(Oc2ccc(F)cc2)c1 [Compound 199] | > 0.01 |  | > 0.1 | 0.003 | 0.0006 | 8 |
| CC(C)C(=Nc1cccc(C(F)(F)F)c1)OCc1cccc(Oc2ccc(F)cc2)c1 [Compound 202] | > 0.01 | 0.0003 | > 0.1 | 0.0007 | 0.00024 | 18 |
| CC(C)(C)C(=Nc1ccc(F)c(Cl)c1)OCc1cccc(Oc2ccc(F)cc2)c1 [Compound 204] | > 0.01 |  | > 0.1 | 0.004 | 0.0023 | > 100 |
| CCC(C)C(=Nc1ccc(F)c(Cl)c1)OCc1cccc(Oc2ccc(F)cc2)c1 (stereo not drawn) [Compound 210] | > 0.01 |  | 0.045 | 0.0015 | 0.00028 | 35 |
| CC(C)C(=Nc1ccc2c(c1)OC(C)(C)O2)OCc1cccc(Oc2ccc(F)cc2)c1 [Compound 219] | > 0.01 |  | 0.027 | 0.004 | 0.00025 | 50 |
| CC(C)C(=Nc1cccc(C(F)(F)F)c1)OCc1ccc(F)c(Oc2ccc(Cl)cc2)c1 [Compound 266] |  |  | 0.06 | 0.0007 | 0.00016 | 10 |
| C=C(C)C(=Nc1ccc(C(F)(F)F)cc1)OCc1ccc(F)c(Oc2ccc(Cl)cc2)c1 [Compound 432] | > 0.01 |  | 0.032 | < 0.1 | 0.0012 | < 100 |
| CC(C)C(=Nc1ccc([N+](=O)[O-])cc1)OCc1coc(Cc2ccccc2)c1 [Compound 539] | > 0.01 | > 0.05 | > 0.1 |  | > 0.1 | 22 |
| CC(C)C(=Nc1ccc2c(c1)OCO2)OCc1ccnc(Oc2ccccc2)c1 [Compound 540] | > 0.01 | > 0.05 | > 0.1 |  | < 0.1 | > 100 |
| CC(C)C(=Nc1ccc(F)c(Cl)c1)OCc1cccc(Cc2ccccc2)c1 [Compound 541] | > 0.01 | > 0.05 | > 0.1 |  | 0.001 | < 100 |
| CC(C)C(=Nc1ccc(OC(F)(F)F)cc1)OCc1cccc(Cc2ccccc2)c1 [Compound 542] | > 0.01 | > 0.05 | > 0.1 |  | > 0.01 | > 100 |
| CC(C)C(=Nc1ccc(C(F)(F)F)cc1)OCc1cccc(Cc2ccccc2)c1 [Compound 543] | > 0.01 | < 0.05 | > 0.1 |  | 0.0008 | < 100 |
| COCc1c(F)c(F)c(COC(=Nc2ccc(C(C)(C)C)cc2)C(C)C)c(F)c1F [Compound 544] | > 0.01 | > 0.05 | > 0.1 |  | > 0.1 | > 100 |
| Cc1cccc(N=C(OCc2cccc(Oc3ccc(Cl)cc3)n2)C(C)C)c1 [Compound 545] | > 0.01 | > 0.05 | > 0.1 |  | > 0.1 | < 100 |
| C#CCc1c(F)c(F)c(COC(=Nc2cccc(C(F)(F)F)c2)C(C)C)c(F)c1F [Compound 546] | 0.0032 | < 0.05 | > 0.1 |  | 0.0001 | < 100 |
| C#CCc1c(F)c(F)c(COC(=Nc2ccc3c(c2)OCO3)C(C)C)c(F)c1F [Compound 547] | > 0.01 | < 0.05 | 0.05 |  | 0.0005 | < 100 |
| CC(C)C(=Nc1ccc(F)c(Cl)c1)OCc1cccc(Oc2ccccn2)c1 [Compound 549] | > 0.01 | > 0.05 | > 0.1 |  | > 0.1 | < 100 |
